According to DBAASP:
Converted amounts (≈) assume the structure as drawn. One block for each compound: values may come before it.

What was measured:
Assay in all cases: ≥ marks a high value that may be exact or a test limit, other limits are often not marked, values filed in µg/mL are converted to µM
[1] = system: Pseudomonas aeruginosa M76
Escherichia coli UB1005 = system: Escherichia coli UB1005
Staphylococcus aureus = system: Staphylococcus aureus
Candida albicans = system: Candida albicans
[2] = system: Stenotrophomonas maltophilia
[3] = system: Achromobacter xylosoxidans
[4] = system: Pseudomonas aeruginosa PAO1
[5] = system: Pseudomonas aeruginosa R70
[6] = system: Salmonella enterica serovar Typhimurium
[7] = system: Pseudomonas aeruginosa M917
Pseudomonas fluorescens = system: Pseudomonas fluorescens
[8] = system: Pseudomonas aeruginosa M1251
[9] = system: Pseudomonas aeruginosa M1426
Ralstonia pickettii = system: Ralstonia pickettii
Fusarium graminearum = system: Fusarium graminearum
[10] = system: Mannheimia haemolytica Serovar 2
Aspergillus fumigatus = system: Aspergillus fumigatus
Klebsiella pneumoniae = system: Klebsiella pneumoniae
[11] = system: Mannheimia haemolytica Serovar 6
Pasteurella multocida = system: Pasteurella multocida
Bibersteinia trehalosi = system: Bibersteinia trehalosi
[12] = system: Salmonella enterica subsp. arizonae
[13] = system: Mannheimia haemolytica Serovar 1
[14] = system: Corynebacterium pseudotuberculosis ATCC 19410
[15] = system: Pseudomonas aeruginosa ATCC 27853
[16] = system: Pseudomonas aeruginosa ATCC 9027
[17] = system: Acinetobacter baumannii ATCC 19606
[18] = system: Staphylococcus aureus 113
Escherichia coli 804 = system: Escherichia coli 804
[19] = system: Bacillus subtilis ATCC 23857
[20] = system: Pseudomonas aeruginosa 73
[21] = system: Pseudomonas aeruginosa 50
[22] = system: Acinetobacter baumannii 9931
Escherichia coli 780 = system: Escherichia coli 780
[23] = system: Klebsiella pneumoniae ATCC 700603
Staphylococcus aureus 75 = system: Staphylococcus aureus 75
[24] = system: Acinetobacter baumannii 97830
[25] = system: Staphylococcus aureus ATCC 29213
[26] = system: Staphylococcus epidermidis ATCC 12228
[27] = system: Pseudomonas aeruginosa H744
[28] = system: Pseudomonas aeruginosa Z61
[29] = system: Pseudomonas aeruginosa H374
[30] = system: Pseudomonas aeruginosa H547
[31] = system: Pseudomonas aeruginosa K799
[32] = system: Salmonella enterica subsp. enterica serovar Typhimurium ATCC 14028s

SMILES: CC(C)C[C@H](NC(=O)[C@H](C)NC(=O)[C@H](CCCCN)NC(=O)[C@H](CCCCN)NC(=O)[C@H](C)NC(=O)[C@H](CC(C)C)NC(=O)[C@H](CCCCN)NC(=O)[C@H](CCCCN)NC(=O)[C@H](CC(C)C)NC(=O)[C@H](CCCCN)NC(=O)[C@H](CCCCN)NC(=O)[C@H](CC(C)C)NC(=O)[C@H](CC(C)C)NC(=O)[C@H](CCCCN)NC(=O)[C@H](CCCCN)NC(=O)[C@H](CC(C)C)NC(=O)[C@H](C)NC(=O)[C@H](CCCCN)NC(=O)[C@H](CC(C)C)NC(=O)[C@H](C)NC(=O)[C@H](CC(C)C)NC(=O)[C@H](C)NC(=O)[C@@H](N)Cc1ccccc1)C(N)=O [FALALKALKKLLKKLKKLAKKAL]
MIC [1]: 12.4 µM (≈ 32 µg/mL)
MIC (Escherichia coli UB1005): 1.55 µM (≈ 4 µg/mL)
MIC (Staphylococcus aureus): 3.1 µM (≈ 8 µg/mL)
MIC (Candida albicans): 24.8 µM (≈ 64 µg/mL)
MIC [2]: 1.55 µM (≈ 4 µg/mL)
MIC [3]: 12.4 µM (≈ 32 µg/mL)
MIC [4]: 3.1 µM (≈ 8 µg/mL)
MIC [5]: 6.2 µM (≈ 16 µg/mL)
MIC [6]: 3.1 µM (≈ 8 µg/mL)
MIC [7]: ≥ 49.6 µM
MIC (Pseudomonas fluorescens): 3.1 µM (≈ 8 µg/mL)
MIC [8]: 6.2 µM (≈ 16 µg/mL)
MIC [9]: 6.2 µM (≈ 16 µg/mL)
MIC (Ralstonia pickettii): 1.55 µM (≈ 4 µg/mL)

SMILES: CC[C@H](C)[C@H](NC(=O)[C@H](Cc1cnc[nH]1)NC(=O)[C@@H](NC(=O)[C@@H](NC(=O)[C@H](CCCCN)NC(=O)[C@H](CCCN=C(N)N)NC(=O)[C@@H](NC(=O)[C@@H](NC(=O)[C@H](CCCN=C(N)N)NC(=O)[C@@H](N)CCCN=C(N)N)[C@@H](C)CC)[C@@H](C)CC)[C@@H](C)CC)[C@@H](C)CC)C(=O)N[C@H](C(=O)N[C@@H](CCCCN)C(=O)N[C@@H](CCCCN)C(N)=O)[C@@H](C)CC [RRIIRKIIHIIKK]
MIC [10]: 2.73 µM (≈ 4.6 µg/mL)
MIC (Aspergillus fumigatus): 3.44 µM (≈ 5.8 µg/mL)
MIC (Staphylococcus aureus): > 11.9 µM
MIC (Klebsiella pneumoniae): > 11.9 µM
MIC [11]: 2.49 µM (≈ 4.2 µg/mL)
MIC (Pasteurella multocida): 11.9 µM (≈ 20 µg/mL)
MIC [4]: 0.356 µM (≈ 0.6 µg/mL)
MIC (Bibersteinia trehalosi): 11.9 µM (≈ 20 µg/mL)
MIC [12]: 11.9 µM (≈ 20 µg/mL)
MIC [13]: 4.92 µM (≈ 8.3 µg/mL)
MIC [14]: 11.9 µM (≈ 20 µg/mL)

SMILES: CC(C)C[C@H](NC(=O)[C@H](Cc1c[nH]c2ccccc12)NC(=O)[C@H](CCCN=C(N)N)NC(=O)[C@H](Cc1c[nH]c2ccccc12)NC(=O)[C@H](Cc1c[nH]c2ccccc12)NC(=O)[C@H](Cc1c[nH]c2ccccc12)NC(=O)[C@H](CCCN=C(N)N)NC(=O)[C@H](Cc1c[nH]c2ccccc12)NC(=O)[C@@H](N)CC(C)C)C(N)=O [LWRWWWRWL]
MIC [15]: 128 µM (≈ 190 µg/mL)
MIC [16]: 32 µM (≈ 47.6 µg/mL)
MIC [17]: 16 µM (≈ 23.8 µg/mL)
MIC [18]: 4 µM (≈ 5.95 µg/mL)
MIC (Escherichia coli 804): ≥ 32 µM
MIC [19]: 4 µM (≈ 5.95 µg/mL)
MIC [20]: ≥ 64 µM
MIC [21]: ≥ 32 µM
MIC [22]: 16 µM (≈ 23.8 µg/mL)
MIC (Escherichia coli 780): 16 µM (≈ 23.8 µg/mL)
MIC [23]: 8 µM (≈ 11.9 µg/mL)
MIC (Staphylococcus aureus 75): 4 µM (≈ 5.95 µg/mL)
MIC [24]: 8 µM (≈ 11.9 µg/mL)
MIC [25]: 4 µM (≈ 5.95 µg/mL)
MIC [26]: 4 µM (≈ 5.95 µg/mL)

Other lines, results leading:

MIC (Fusarium graminearum): 20 µM (≈ 39.8 µg/mL)
SMILES: CSCC[C@H](NC(=O)[C@H](Cc1cnc[nH]1)NC(=O)[C@H](CCCCN)NC(=O)CNC(=O)[C@H](CC(N)=O)NC(=O)[C@H](CCCN=C(N)N)NC(=O)[C@@H](NC(=O)[C@H](Cc1cnc[nH]1)NC(=O)[C@H](CS)NC(=O)[C@H](C)NC(=O)CNC(=O)[C@H](Cc1cnc[nH]1)NC(=O)[C@@H](NC(=O)[C@H](C)NC(=O)CNC(=O)[C@H](CCC(=O)O)NC(=O)[C@@H](N)Cc1c[nH]c2ccccc12)C(C)C)C(C)C)C(=O)N[C@@H](CS)C(=O)O [WEGAVHGACHVRNGKHMC]

MIC [27]: 27.6 µM (≈ 64 µg/mL)
MIC (Escherichia coli UB1005): 4.75 µM (≈ 11 µg/mL)
MIC [28]: 27.6 µM (≈ 64 µg/mL)
MIC [29]: 27.6 µM (≈ 64 µg/mL)
MIC [30]: 27.6 µM (≈ 64 µg/mL)
MIC [31]: 27.6 µM (≈ 64 µg/mL)
MIC [32]: 27.6 µM (≈ 64 µg/mL)
SMILES: CC[C@H](C)[C@H](NC(=O)[C@H](Cc1ccccc1)NC(=O)[C@H](CO)NC(=O)[C@H](CCCCN)NC(=O)[C@H](Cc1ccccc1)NC(=O)[C@@H](NC(=O)[C@H](CCCCN)NC(=O)[C@@H](N)Cc1c[nH]c2ccccc12)C(C)C)C(=O)N[C@@H](CCCCN)C(=O)N[C@@H](CCCCN)C(=O)N[C@@H](C)C(=O)N[C@@H](CO)C(=O)N[C@@H](CO)C(=O)N[C@@H](Cc1ccccc1)C(=O)N[C@@H](C)C(=O)N[C@@H](CCC(N)=O)C(=O)N[C@@H](CO)C(=O)N[C@H](C(=O)N[C@@H](CC(C)C)C(=O)N[C@@H](CC(=O)O)C(=O)O)C(C)C [WKVFKSFIKKASSFAQSVLD]
